{"source": "patent US20040071768A1", "about": "“Compositions and methods for treating cancer” (Inex Pharmaceuticals Corporation, priority 1999, published 2004)", "key": {"[1]": {"system": "NCl H460 non small cell lung xenografts", "assay": "Multiple dose (q7dx3) anti-tumor activity, NCl H460 non small cell lung xenograft", "settings": "positive control", "description": "Female NCr nude mice were injected intravenously (q7dx3, beginning day 7) via the lateral tail vein. […] Mitomycin C (⋄) was prepared in saline and injected iv (q4dx3) at a dose of 3 mg/kg/dose. Drug-to-lipid ratio was 0.3/1 (w/w). Data points represent median tumor volume (n=6).\n(§1) The anti-tumor activity of multiple (q7d3) dose schedules of liposomal vinorelbine was evaluated in several human xenograft tumor models. The goal of this series of studies was to identify the benefits of encapsulation by evaluating a series of doses and determining the therapeutic index in several xenograft models. Models were selected based on the following criteria: (1) activity in the single dose studies, (2) a comprehensive literature review of vinca alkaloid efficacy, (3) a desire to include at least 2-3 models that represent the clinical use of vinorelbine, and (4) a desire to include models with a range of sensitivity to vinorelbine so that improvements resulting from the use of the liposome formulation might be identified. Based on these criteria, MX-1 and MDA-MB-435 breast models, the NCl-H460 NSCLC model and the HT-29 and DLD-1 colon models were chosen.\n(§2) Therapeutic index (TI) is a parameter that quantifies the “safety factor” of a particular therapy. TI is a ratio of a toxicity parameter and a biological activity parameter. Therefore, a higher ratio represents a greater potential margin of safety. For these studies, TI is defined as follows: […]\n(§3) The minimal effective dose (MED) was set according to NCl activity criteria as the dose resulting in an optimal % T/C of 40. This information was derived from Table 7."}, "[2]": {"settings": "adults, cited from earlier work"}, "DLD-1 colon xenografts": {"system": "DLD-1 colon xenografts", "settings": "positive control", "description": "Female NCr nude mice were injected intravenously (q7dx3) via the lateral tail vein on days indicated by an asterisk (*). […] Irinotecan (⋄) was prepared in saline and injected iv (q4dx3) at a dose of 90 mg/kg/dose. Drug-to-lipid ratio was 0.3/1 (w/w). Data points represent median tumor volume (n=6).\nas §1, §2, §3"}, "[3]": {"system": "MDA-MB-435 breast xenografts", "settings": "positive control", "description": "Female NCr nude mice were injected intravenously (q7dx3, beginning day 15) via the lateral tail vein. […] Paclitaxel (⋄) was prepared in […]/12.5% ethanol/75% saline and injected iv (q1dx5) at a dose of 15 mg/kg/dose. Drug-to-lipid ratio was 0.3/1 (w/w). Data points represent median tumor volume (n=6).\nas §1, §2, §3"}}, "data": [{"smiles": "CO[C@@]12[C@H](COC(N)=O)C3=C(C(=O)C(C)=C(N)C3=O)N1C[C@@H]1N[C@@H]12", "note": "[Mitomycin C]", "values": [{"measurement": "% T/C (optimal % T/C following final treatment)", "setting": "[1]; 3 mg/kg/dose iv q4dx3", "value": 5, "unit": "%"}, {"measurement": "DRD (drug related deaths, n = 6)", "setting": "[1]; 3 mg/kg/dose iv q4dx3", "value": 0}, {"measurement": "NCI Score", "setting": "[1]; 3 mg/kg/dose iv q4dx3", "value": 1}, {"measurement": "T-C (tumor growth delay to 1000 mm^3)", "setting": "[1]; 3 mg/kg/dose iv q4dx3", "value": 22.2}, {"measurement": "TF (tumor free animals at the end of study)", "setting": "[1]; 3 mg/kg/dose iv q4dx3, n=6", "value": 0}]}, {"smiles": "CC[C@]1(O)C[C@H]2CN(CCc3c([nH]c4ccccc34)[C@@](C(=O)OC)(c3cc4c(cc3OC)N(C=O)[C@H]3[C@@](O)(C(=O)OC)[C@H](OC(C)=O)[C@]5(CC)C=CCN6CC[C@]43[C@@H]65)C2)C1", "note": "[free vincristine, 22-oxovincaleukoblastine]", "values": [{"measurement": "total dose at which peripheral neuropathic effects usually begin", "setting": "[2]; 2-3 doses", "value": "5 to 6", "unit": "mg"}, {"measurement": "cumulative dose after which peripheral neuropathic effects are generally significant", "setting": "[2]; 8-10 doses", "value": "15 to 20", "unit": "mg"}]}, {"smiles": "CCc1c2c(nc3ccc(OC(=O)N4CCC(N5CCCCC5)CC4)cc13)-c1cc3c(c(=O)n1C2)COC(=O)[C@]3(O)CC", "note": "[Irinotecan]", "values": [{"measurement": "% T/C (optimal % T/C following final treatment)", "setting": "DLD-1 colon xenografts; 90 mg/kg/dose iv q4dx3", "value": 11, "unit": "%"}, {"measurement": "DRD (drug related deaths, n = 6)", "setting": "DLD-1 colon xenografts; 90 mg/kg/dose iv q4dx3", "value": 0}, {"measurement": "NCI Score", "setting": "DLD-1 colon xenografts; 90 mg/kg/dose iv q4dx3", "value": 1}, {"measurement": "T-C (tumor growth delay to 1000 mm^3)", "setting": "DLD-1 colon xenografts; 90 mg/kg/dose iv q4dx3", "value": 17.2}, {"measurement": "TF (tumor free animals at the end of study)", "setting": "DLD-1 colon xenografts; 90 mg/kg/dose iv q4dx3, n=6", "value": 0}]}, {"smiles": "CC(=O)O[C@H]1C(=O)[C@@]2(C)[C@H]([C@H](OC(=O)c3ccccc3)[C@]3(O)C[C@H](OC(=O)[C@H](O)[C@@H](NC(=O)c4ccccc4)c4ccccc4)C(C)=C1C3(C)C)[C@]1(OC(C)=O)CO[C@@H]1C[C@@H]2O", "note": "[Paclitaxel]", "values": [{"measurement": "% T/C (optimal % T/C following final treatment)", "setting": "[3]; 15 mg/kg/dose iv q1dx5", "value": "−55", "unit": "%"}, {"measurement": "NCI Score", "setting": "[3]; 15 mg/kg/dose iv q1dx5", "value": 3}, {"measurement": "T-C (tumor growth delay to 1000 mm^3)", "setting": "[3]; 15 mg/kg/dose iv q1dx5", "value": 36.9}, {"measurement": "TF (tumor free animals at the end of study)", "setting": "[3]; 15 mg/kg/dose iv q1dx5, n=6", "value": 0}]}]}
